Data taken from article PMC5056344, “Highly Efficient and Stable Novel NanoBiohybrid Catalyst to Avert 3,4-Dihydroxybenzoic Acid Pollutant in Water” (Scientific Reports, 2016).

Test system: T1, protocatechuate 3,4-dioxygenase (3,4-POD)
T1 construct: gene pcaG; 700 kDa; (alpha-beta)n, n = 2-12, non-heme Fe(III); free enzyme
Test: disappearance of […],4-DHBA at […] nm; non-linear Michaelis-Menten fit
Assay type: biochemical, Pseudomonas sp.
Settings: free enzyme; 50 mM CHES, pH 9.0, 55 °C; 3,4-DHBA 1–200 μM

O=C(O)c1ccc(O)c(O)c1 [3,4-dihydroxybenzoic acid]
Km: 37 ± 15 µM
